≈ marks a conversion by molar mass, not a printed value.
Legend:
[1] = tested on: E. coli, NIHJ; test: Antibacterial activity (MIC), standard method of Japanese Society of Chemotherapy; assay type: cell-based; details: Escherichia coli
Source text: (§1) MIC value is also shown for levofloxacin (LVFX), ciprofloxacin (CPFX), and Comparative Compound (compound of Example 1 in the Patent Document 1) for comparison with the MIC value of the compound of the present invention.

[2] = tested on: Pr. mirabilis, IFO-3849; test: as above; assay type: cell-based; details: Proteus mirabilis, IFO3849
Source text: as §1

[3] = tested on: Pr. vulgaris, 08601; test: as above; assay type: cell-based; details: Proteus vulgaris
Source text: as §1

[4] = tested on: Ps. aeruginosa, 32104; test: as above; assay type: cell-based; details: Pseudomonas aeruginosa
Source text: as §1

[5] = tested on: Ps. aeruginosa, 32121; test: as above; assay type: cell-based; details: Pseudomonas aeruginosa
Source text: as §1

[6] = tested on: S. aureus, 209P; test: as above; assay type: cell-based; details: Staphylococcus aureus
Source text: as §1

[7] = tested on: S. aureus, 870307; test: as above; assay type: cell-based; details: 870307: levofloxacin-resistant methicillin-resistant Staphylococcus aureus
Source text: as §1

[8] = tested on: S. epidermidis, 56500; test: as above; assay type: cell-based; details: Staphylococcus epidermidis
Source text: as §1

[9] = tested on: S. flexneri, 2A 5503; test: as above; assay type: cell-based; details: Shigella flexneri, 2A5503
Source text: as §1

[10] = tested on: S. maltophilia, IID-1275; test: as above; assay type: cell-based; details: Stenotrophomonas maltophilia, IID1275
Source text: as §1

[11] = tested on: S. pneumoniae, J24; test: as above; assay type: cell-based; details: Streptococcus pneumoniae, J24: penicillin resistant pneumococcus (moderate resistance)
Source text: as §1

[12] = tested on: Ser. marcescens, 10100; test: as above; assay type: cell-based; details: Serratia marcescens
Source text: as §1

[13] = tested on: Str. faecalis, ATCC-19433; test: as above; assay type: cell-based; details: Enterococcus faecalis, ATCC19433
Source text: as §1

[14] = tested on: Str. pyogenes, G-36; test: as above; assay type: cell-based; details: Streptococcus pyogenes, G36
Source text: as §1

[15] = tested on: 6 week old male Slc:ddY mice; test: Single dose toxicity test, intravenous injection; assay type: in vivo
Method: The compounds of the present invention were evaluated for their toxicity in a single dose toxicity test by administering the compounds to 6 week old male Slc:ddY mice. The compound was diluted with 0.1 mol/l NaOH/physiological saline, and filtered through Millex GS filter (0.22 μm) for sterilization. The compound was administered at a rate of 10 ml/kg and 0.2 ml/min in a single dose by intravenous injection. The compound of Example 1 in the Patent Document 1 was used for the Comparative Compound as in the case of Test Example 1.

Compound	MIC [1]	MIC [2]	MIC [3]	MIC [4]	MIC [5]	MIC [6]	MIC [7]	MIC [8]	MIC [9]	MIC [10]	MIC [11]	MIC [12]	MIC [13]	MIC [14]	Number of dead mice/Total ([15]; Dose 100 mg/kg)	Number of dead mice/Total ([15]; Dose 150 mg/kg)	melting point
O=C(O)c1cn(C2CC2)c2cc(N3CCNCC3)c(F)cc2c1=O [CPFX, ciprofloxacin, reference compound]	≤ 0.003 µg/mL	0.012 µg/mL (≈ 0.0362 µM)	≤ 0.003 µg/mL	0.05 µg/mL (≈ 0.151 µM)	0.025 µg/mL (≈ 0.0754 µM)	0.1 µg/mL (≈ 0.302 µM)	> 6.25 µg/mL	0.2 µg/mL (≈ 0.604 µM)	0.006 µg/mL (≈ 0.0181 µM)	0.78 µg/mL (≈ 2.35 µM)	0.1 µg/mL (≈ 0.302 µM)	0.025 µg/mL (≈ 0.0754 µM)	0.78 µg/mL (≈ 2.35 µM)	1.56 µg/mL (≈ 4.71 µM)			
COc1c(N2C[C@H](CF)[C@H](N)C2)c(F)cc2c(=O)c(C(=O)O)cn(C3C[C@@H]3F)c12 (stereo partly shown) [Comparative Compound, reference compound]	≤ 0.003 µg/mL	0.025 µg/mL (≈ 0.0608 µM)	0.012 µg/mL (≈ 0.0292 µM)	0.2 µg/mL (≈ 0.486 µM)	0.05 µg/mL (≈ 0.122 µM)	0.012 µg/mL (≈ 0.0292 µM)	0.2 µg/mL (≈ 0.486 µM)	0.05 µg/mL (≈ 0.122 µM)	0.006 µg/mL (≈ 0.0146 µM)	0.2 µg/mL (≈ 0.486 µM)	0.025 µg/mL (≈ 0.0608 µM)	0.05 µg/mL (≈ 0.122 µM)	0.1 µg/mL (≈ 0.243 µM)	0.1 µg/mL (≈ 0.243 µM)	1/5	2/3	
Cc1c(N2C[C@H](CF)[C@H](N)C2)c(F)cc2c(=O)c(C(=O)O)cn(C3CC3)c12 [Compound No. 1, 7-[(3S,4S)-3-amino-4-fluoromethyl-1-pyrrolidinyl]-1-cyclopropyl-6-fluoro-1,4-dihydro-8-methyl-4-oxoquinoline-3-carboxylic acid]	≤ 0.003 µg/mL	0.012 µg/mL (≈ 0.0318 µM)	≤ 0.003 µg/mL	0.05 µg/mL (≈ 0.132 µM)	0.025 µg/mL (≈ 0.0662 µM)	0.012 µg/mL (≈ 0.0318 µM)	0.2 µg/mL (≈ 0.53 µM)	0.025 µg/mL (≈ 0.0662 µM)	≤ 0.003 µg/mL	0.1 µg/mL (≈ 0.265 µM)	0.025 µg/mL (≈ 0.0662 µM)	0.025 µg/mL (≈ 0.0662 µM)	0.05 µg/mL (≈ 0.132 µM)	0.1 µg/mL (≈ 0.265 µM)			160 to 165 °C
Cc1c(N2C[C@H](CF)[C@H](N)C2)ccc2c(=O)c(C(=O)O)cn(C3CC3)c12 [Compound No. 2, 7-[(3S,4S)-3-amino-4-fluoromethyl-1-pyrrolidinyl]-1-cyclopropyl-1,4-dihydro-8-methyl-4-oxoquinoline-3-carboxylic acid]	≤ 0.003 µg/mL	0.05 µg/mL (≈ 0.139 µM)	0.006 µg/mL (≈ 0.0167 µM)	0.1 µg/mL (≈ 0.278 µM)	0.025 µg/mL (≈ 0.0696 µM)	0.025 µg/mL (≈ 0.0696 µM)	0.78 µg/mL (≈ 2.17 µM)	0.1 µg/mL (≈ 0.278 µM)	0.006 µg/mL (≈ 0.0167 µM)	0.2 µg/mL (≈ 0.556 µM)	0.1 µg/mL (≈ 0.278 µM)	0.05 µg/mL (≈ 0.139 µM)	0.2 µg/mL (≈ 0.556 µM)	0.2 µg/mL (≈ 0.556 µM)			203 to 205 °C
Cc1c(N2C[C@H](CF)[C@H](N)C2)c(F)cc2c(=O)c(C(=O)O)cn([C@@H]3C[C@@H]3F)c12 [Compound No. 3, 7-[(3S,4S)-3-amino-4-fluoromethyl-1-pyrrolidinyl]-6-fluoro-1-[(2S,1R)-2-fluorocyclopropyl]-1,4-dihydro-8-methyl-4-oxoquinoline-3-carboxylic acid]	0.006 µg/mL (≈ 0.0152 µM)	0.006 µg/mL (≈ 0.0152 µM)	≤ 0.003 µg/mL	0.05 µg/mL (≈ 0.126 µM)	0.025 µg/mL (≈ 0.0632 µM)	0.006 µg/mL (≈ 0.0152 µM)	0.39 µg/mL (≈ 0.986 µM)	0.025 µg/mL (≈ 0.0632 µM)	≤ 0.003 µg/mL	0.1 µg/mL (≈ 0.253 µM)	0.025 µg/mL (≈ 0.0632 µM)	0.025 µg/mL (≈ 0.0632 µM)	0.1 µg/mL (≈ 0.253 µM)	0.05 µg/mL (≈ 0.126 µM)	0/5	0/3♭	
CN[C@@H]1CN(c2c(F)cc3c(=O)c(C(=O)O)cn([C@@H]4C[C@@H]4F)c3c2C)C[C@@H]1CF [Compound No. 4, 7-[(3S,4S)-3-fluoromethyl-4-methylaminopyrrolidine-1-yl]-6-fluoro-1-[(2S,1R)-2-fluorocyclopropyl]-1,4-dihydro-8-methyl-4-oxoquinoline-3-carboxylic acid]	≤ 0.003 µg/mL	0.025 µg/mL (≈ 0.0611 µM)	0.006 µg/mL (≈ 0.0147 µM)	0.1 µg/mL (≈ 0.244 µM)	0.05 µg/mL (≈ 0.122 µM)	0.012 µg/mL (≈ 0.0293 µM)	0.39 µg/mL (≈ 0.953 µM)	0.05 µg/mL (≈ 0.122 µM)	0.006 µg/mL (≈ 0.0147 µM)	0.1 µg/mL (≈ 0.244 µM)	0.05 µg/mL (≈ 0.122 µM)	0.05 µg/mL (≈ 0.122 µM)	0.1 µg/mL (≈ 0.244 µM)	0.1 µg/mL (≈ 0.244 µM)	0/5	1/2	
CN[C@@H]1CN(c2c(F)cc3c(=O)c(C(=O)O)cn(C4CC4)c3c2C)C[C@@H]1CF [Compound No. 5, 1-cyclopropyl-6-fluoro-7-[(3S,4S)-3-fluoromethyl-4-methylaminopyrrolidine-1-yl]-8-methyl-1,4-dihydro-4-oxoquinoline-3-carboxylic acid]	≤ 0.003 µg/mL	0.025 µg/mL (≈ 0.0639 µM)	0.006 µg/mL (≈ 0.0153 µM)	0.2 µg/mL (≈ 0.511 µM)	0.05 µg/mL (≈ 0.128 µM)	0.012 µg/mL (≈ 0.0307 µM)	0.39 µg/mL (≈ 0.996 µM)	0.05 µg/mL (≈ 0.128 µM)	≤ 0.003 µg/mL	0.05 µg/mL (≈ 0.128 µM)	0.05 µg/mL (≈ 0.128 µM)	0.05 µg/mL (≈ 0.128 µM)	0.1 µg/mL (≈ 0.255 µM)	0.1 µg/mL (≈ 0.255 µM)			156 to 158 °C
Cc1c(N2C[C@@H](N)[C@@H](C(F)F)C2)c(F)cc2c(=O)c(C(=O)O)cn([C@@H]3C[C@@H]3F)c12 [Compound No. 6, 7-[(3S,4S)-3-amino-4-difluoromethylpyrrolidine-1-yl]-6-fluoro-1-[(1R,2S)-2-fluorocyclopropyl]-8-methyl-1,4-dihydro-4-oxoquinoline-3-carboxylic acid]	≤ 0.003 µg/mL	0.012 µg/mL (≈ 0.029 µM)	0.006 µg/mL (≈ 0.0145 µM)	0.2 µg/mL (≈ 0.484 µM)	0.05 µg/mL (≈ 0.121 µM)	0.012 µg/mL (≈ 0.029 µM)	0.2 µg/mL (≈ 0.484 µM)	0.025 µg/mL (≈ 0.0605 µM)	≤ 0.003 µg/mL	0.05 µg/mL (≈ 0.121 µM)	0.05 µg/mL (≈ 0.121 µM)	0.05 µg/mL (≈ 0.121 µM)	0.1 µg/mL (≈ 0.242 µM)	0.05 µg/mL (≈ 0.121 µM)			214 to 216 °C
C[C@H]1COc2c(N3CCN(C)CC3)c(F)cc3c(=O)c(C(=O)O)cn1c23 [LVFX, levofloxacin, reference compound]	0.012 µg/mL (≈ 0.0332 µM)	0.05 µg/mL (≈ 0.138 µM)	0.012 µg/mL (≈ 0.0332 µM)	0.2 µg/mL (≈ 0.553 µM)	0.1 µg/mL (≈ 0.277 µM)	0.2 µg/mL (≈ 0.553 µM)	> 6.25 µg/mL	0.39 µg/mL (≈ 1.08 µM)	0.025 µg/mL (≈ 0.0692 µM)	0.39 µg/mL (≈ 1.08 µM)	0.78 µg/mL (≈ 2.16 µM)	0.1 µg/mL (≈ 0.277 µM)	0.78 µg/mL (≈ 2.16 µM)	0.78 µg/mL (≈ 2.16 µM)			
